Reference: patent US20070032456A1, “Modulation of cell death” (priority 2003, published 2007)

Experiments:
IL-6 = assay: Level of expression of IL-6 in H9C2 cells treated with PLP under H2O2 oxidative stress; assay type: cell-based, rat
Experimental: Subcultured H9C2 cells (rat myocardium) (ATCC No. CRL-1446, from the American Type Culture Collection in Manassas, Va.) were plated into six well plates at a concentration of about 10^6 cells per well and allowed to grow overnight. The wells were then treated with concentrations of pyridoxal-5′-phosphate at concentrations of about 0, 50, 100, 250, 500, and 1000 nM in the medium. The cells were incubated for about 40 minutes.
An oxidative stressor, 1 mM H2O2 (Sigma, St. Louis, Mo.), was then added to each well. Supernantant samples were collected from the wells before addition of the 1 mM H2O2, and after 2, 4, 6, and 12 hours of exposure. The supernatant samples were stored at −20° C. until analyzed. The levels of IL-6 were then analyzed in each of the samples using test kits from Biosource Intl. (Camarillo, Calif.).

activated p38 = assay: Level of activated p38 in cells treated with PLP; assay type: cell-based, rat; settings: data not shown
[1] = in water, alcohol, and ether; cited from earlier work

## Cc1ncc(COP(=O)(O)O)c(C=O)c1O [pyridoxal-5′-phosphate, 3-hydroxy-2-methyl-5-[(phosphonooxy)methyl]-4-pyridinecarboxaldehyde]
IL-6; H9C2 cells (rat myocardium) pretreated about 40 minutes with 100 nM or more, then 1 mM H2O2, FIG. 1
  levels of IL-6 expression: decreased levels of IL-6 expression
IL-6; H9C2 cells, 100 nM, after application of oxidative stress (1 mM H2O2), FIG. 2
  duration of the decrease of IL-6 levels: at least 12 hours
Activated p38
  level of activated p38: did not effect the level of activated p38
[1]
  solubility: essentially insoluble
